Calls of active or inactive are those of the source. No rule for the calls is given here.
System: CCRIS mutagenicity, Ames/micronucleus/aberration tests
Test: CCRIS mutagenicity studies
[1] = Test System: AMES SALMONELLA TYPHIMURIUM, Strain/Indicator: TA98, Metabolic Activation: NONE, Method: PREINCUBATION
[2] = Test System: AMES SALMONELLA TYPHIMURIUM, Strain/Indicator: TA100, Metabolic Activation: NONE, Method: PREINCUBATION
[3] = Test System: AMES SALMONELLA TYPHIMURIUM, Strain/Indicator: TA1535, Metabolic Activation: NONE, Method: PREINCUBATION
[4] = Test System: AMES SALMONELLA TYPHIMURIUM, Strain/Indicator: TA1537, Metabolic Activation: NONE, Method: PREINCUBATION
[5] = Test System: AMES SALMONELLA TYPHIMURIUM, Strain/Indicator: TA98, Metabolic Activation: HAMSTER, LIVER, S-9, AROCLOR 1254 (10%), Method: PREINCUBATION
[6] = Test System: AMES SALMONELLA TYPHIMURIUM, Strain/Indicator: TA98, Metabolic Activation: RAT, LIVER, S-9, AROCLOR 1254 (10%), Method: PREINCUBATION
[7] = Test System: AMES SALMONELLA TYPHIMURIUM, Strain/Indicator: TA100, Metabolic Activation: HAMSTER, LIVER, S-9, AROCLOR 1254 (10%), Method: PREINCUBATION
[8] = Test System: AMES SALMONELLA TYPHIMURIUM, Strain/Indicator: TA100, Metabolic Activation: RAT, LIVER, S-9, AROCLOR 1254 (10%), Method: PREINCUBATION
[9] = Test System: AMES SALMONELLA TYPHIMURIUM, Strain/Indicator: TA1535, Metabolic Activation: RAT, LIVER, S-9, AROCLOR 1254 (10%), Method: PREINCUBATION
[10] = Test System: AMES SALMONELLA TYPHIMURIUM, Strain/Indicator: TA1537, Metabolic Activation: HAMSTER, LIVER, S-9, AROCLOR 1254 (10%), Method: PREINCUBATION
[11] = Test System: AMES SALMONELLA TYPHIMURIUM, Strain/Indicator: TA1537, Metabolic Activation: RAT, LIVER, S-9, AROCLOR 1254 (10%), Method: PREINCUBATION
[12] = Test System: AMES SALMONELLA TYPHIMURIUM, Strain/Indicator: TA98, Metabolic Activation: NONE, Method: STANDARD PLATE
[13] = Test System: AMES SALMONELLA TYPHIMURIUM, Strain/Indicator: TA98, Metabolic Activation: RAT, LIVER, S-9, AROCLOR 1254, Method: STANDARD PLATE
[14] = Test System: AMES SALMONELLA TYPHIMURIUM, Strain/Indicator: TA100, Metabolic Activation: NONE, Method: STANDARD PLATE
[15] = Test System: AMES SALMONELLA TYPHIMURIUM, Strain/Indicator: TA100, Metabolic Activation: RAT, LIVER, S-9, AROCLOR 1254, Method: STANDARD PLATE
[16] = Test System: AMES SALMONELLA TYPHIMURIUM, Strain/Indicator: TA1535, Metabolic Activation: NONE, Method: STANDARD PLATE
[17] = Test System: AMES SALMONELLA TYPHIMURIUM, Strain/Indicator: TA1535, Metabolic Activation: RAT, LIVER, S-9, AROCLOR 1254, Method: STANDARD PLATE
[18] = Test System: AMES SALMONELLA TYPHIMURIUM, Strain/Indicator: TA1537, Metabolic Activation: NONE, Method: STANDARD PLATE
[19] = Test System: AMES SALMONELLA TYPHIMURIUM, Strain/Indicator: TA1537, Metabolic Activation: RAT, LIVER, S-9, AROCLOR 1254, Method: STANDARD PLATE

## CCCCCCCCBr
[1]
  mutagenic call: inactive; negative
Test System: AMES SALMONELLA TYPHIMURIUM, Strain/Indicator: TA98, Metabolic Activation: RAT LIVER S-9, PHENOBARBITAL AND BETA-NAPHTHOFLAVONE, Method: PREINCUBATION
  mutagenic call: inactive; negative
[2]
  mutagenic call: inactive; negative
Test System: AMES SALMONELLA TYPHIMURIUM, Strain/Indicator: TA100, Metabolic Activation: RAT LIVER S-9, PHENOBARBITAL AND BETA-NAPHTHOFLAVONE, Method: PREINCUBATION
  mutagenic call: inactive; negative
Test System: AMES SALMONELLA TYPHIMURIUM, Strain/Indicator: TA102, Metabolic Activation: NONE, Method: PREINCUBATION
  mutagenic call: inactive; negative
Test System: AMES SALMONELLA TYPHIMURIUM, Strain/Indicator: TA102, Metabolic Activation: RAT LIVER S-9, PHENOBARBITAL AND BETA-NAPHTHOFLAVONE, Method: PREINCUBATION
  mutagenic call: inactive; negative
Test System: AMES SALMONELLA TYPHIMURIUM, Strain/Indicator: TA104, Metabolic Activation: NONE, Method: PREINCUBATION
  mutagenic call: inactive; negative
Test System: AMES SALMONELLA TYPHIMURIUM, Strain/Indicator: TA104, Metabolic Activation: RAT LIVER S-9, PHENOBARBITAL AND BETA-NAPHTHOFLAVONE, Method: PREINCUBATION
  mutagenic call: inactive; negative
[3]
  mutagenic call: inactive; negative
Test System: AMES SALMONELLA TYPHIMURIUM, Strain/Indicator: TA1535, Metabolic Activation: RAT LIVER S-9, PHENOBARBITAL AND BETA-NAPHTHOFLAVONE, Method: PREINCUBATION
  mutagenic call: inactive; negative
[4]
  mutagenic call: inactive; negative
Test System: AMES SALMONELLA TYPHIMURIUM, Strain/Indicator: TA1537, Metabolic Activation: RAT LIVER S-9, PHENOBARBITAL AND BETA-NAPHTHOFLAVONE, Method: PREINCUBATION
  mutagenic call: inactive; negative
Test System: E.COLI, Strain/Indicator: WP2UVRA/PKM101, Metabolic Activation: NONE, Method: PREINCUBATION
  mutagenic call: inactive; negative
Test System: E.COLI, Strain/Indicator: WP2UVRA/PKM101, Metabolic Activation: RAT LIVER S-9, PHENOBARBITAL AND BETA-NAPHTHOFLAVONE, Method: PREINCUBATION
  mutagenic call: inactive; negative
Test System: E.COLI, Strain/Indicator: WP2UVRA, Metabolic Activation: NONE, Method: PREINCUBATION
  mutagenic call: inactive; negative
Test System: E.COLI, Strain/Indicator: WP2UVRA, Metabolic Activation: RAT LIVER S-9, PHENOBARBITAL AND BETA-NAPHTHOFLAVONE, Method: PREINCUBATION
  mutagenic call: inactive; negative

## CC(C)NC(C)C
[5]
  mutagenic call: inactive; negative
[1]
  mutagenic call: inactive; negative
[6]
  mutagenic call: inactive; negative
[7]
  mutagenic call: inactive; negative
[2]
  mutagenic call: inactive; negative
[8]
  mutagenic call: inactive; negative
Test System: AMES SALMONELLA TYPHIMURIUM, Strain/Indicator: TA1535, Metabolic Activation: HAMSTER, LIVER, S-9, AROCLOR 1254 (10%), Method: PREINCUBATION
  mutagenic call: inactive; negative
[3]
  mutagenic call: inactive; negative
[9]
  mutagenic call: inactive; negative
[10]
  mutagenic call: inactive; negative
[4]
  mutagenic call: inactive; negative
[11]
  mutagenic call: inactive; negative

## O=S(=O)(Nc1ccc(Cl)c(Cl)c1)c1cccc2cccnc12
[12]
  mutagenic call: inactive; negative
[13]
  mutagenic call: inactive; negative
[14]
  mutagenic call: inactive; negative
[15]
  mutagenic call: inactive; negative
[16]
  mutagenic call: inactive; negative
[17]
  mutagenic call: inactive; negative
[18]
  mutagenic call: inactive; negative
[19]
  mutagenic call: inactive; negative

## NCCNCCO
[5]
  mutagenic call: inactive; negative
[1]
  mutagenic call: inactive; negative
[12]
  mutagenic call: inactive; negative
[6]
  mutagenic call: inactive; negative
[13]
  mutagenic call: inactive; negative
Test System: AMES SALMONELLA TYPHIMURIUM, Strain/Indicator: TA98, Metabolic Activation: RAT, LIVER, S-9, PCB, Method: PREINCUBATION
  mutagenic call: inactive; negative
[7]
  mutagenic call: inactive; negative
[2]
  mutagenic call: inactive; negative
[14]
  mutagenic call: inactive; negative
[8]
  mutagenic call: inactive; negative
[15]
  mutagenic call: inactive; negative
Test System: AMES SALMONELLA TYPHIMURIUM, Strain/Indicator: TA100, Metabolic Activation: RAT, LIVER, S-9, PCB, Method: PREINCUBATION
  mutagenic call: inactive; negative
Test System: AMES SALMONELLA TYPHIMURIUM, Strain/Indicator: TA1535, Metabolic Activation: HAMSTER, LIVER, S-9, AROCLOR 1254 (10 OR 12%), Method: PREINCUBATION
  mutagenic call: active; positive
[3]
  mutagenic call: inactive; negative
[16]
  mutagenic call: inactive; negative
[9]
  mutagenic call: active; positive
[17]
  mutagenic call: inactive; negative
[10]
  mutagenic call: inactive; negative
[4]
  mutagenic call: inactive; negative
[18]
  mutagenic call: inactive; negative
[11]
  mutagenic call: inactive; negative
[19]
  mutagenic call: inactive; negative
Test System: AMES SALMONELLA TYPHIMURIUM, Strain/Indicator: TA1538, Metabolic Activation: NONE, Method: STANDARD PLATE
  mutagenic call: inactive; negative
Test System: AMES SALMONELLA TYPHIMURIUM, Strain/Indicator: TA1538, Metabolic Activation: RAT, LIVER, S-9, AROCLOR 1254, Method: STANDARD PLATE
  mutagenic call: inactive; negative
Test System: CHINESE HAMSTER OVARY, Strain/Indicator: CHO (HGPRT)/6-THIOGUANINE, Metabolic Activation: NONE
  mutagenic call: inactive; negative
Test System: CHINESE HAMSTER OVARY, Strain/Indicator: CHO (HGPRT)/6-THIOGUANINE, Metabolic Activation: RAT, LIVER, S-9, AROCLOR 1254
  mutagenic call: inactive; negative
Test System: UDS RAT HEPATOCYTES, Strain/Indicator: THY INCORP, Metabolic Activation: NONE, Method: SCINTILLATION SPECTROMETRY
  mutagenic call: inactive; negative

## Cc1ccc2c3c(cc4ccccc42)-c2ccccc2-c13
Test System: AMES SALMONELLA TYPHIMURIUM, Strain/Indicator: TA100, Metabolic Activation: RAT, LIVER, S-9, AROCLOR 1254
  mutagenic call: active; positive

Source: PubChem BioAssay AID1259407 (Chemical Carcinogenesis Research Information System (CCRIS), 2018)
